Measured values from patent publication US20130059896A1, “5-(1H-PYRAZOL-5-YL)THIAZOLE-BASED COMPOUNDS FOR THE TREATMENT OF DISEASES AND DISORDERS OF THE EYE” (priority 2010, published 2013).

Tested on: wild-type C57:129 F2 hybrid mice
Assay: Dexamethasone-induced ocular hypertension model (IOP by TonoLab tonometer)
Type: in vivo, mouse
Protocol: Twenty eight day mouse Alzet mini-osmotic pumps (DURECT Corp., Cupertino, Calif.) were filled with a solution of water soluble dexamethasone (dex) in PBS (Sigma, St. Louis, Mo.) so that they would release roughly 0.1 mg of dex per day. Once the pumps were filled with the dex, the pumps were allowed to equilibrate in PBS at 37° C. for 60 hours. The equilibrated pumps were surgically placed subcutaneously on the backs of wild-type C57:129 F2 hybrid mice weighing between 25 and 35 grams. Surgical incisions were sutured with 5-0 braided silk (ROBOZ, Gaithersburg, Md.) and treated with antibiotic ointment throughout the entire duration of study. Surgical incisions were glued with TissueMend II (Webster Veterinary, Houston, Tex.). Analgesic (buprenorphine) was given through IP injection the day of surgery and 24 hours after surgery. Intraocular pressure (IOP) was measured on these mice using a TonoLab (Colonial Medical Supply Co., Franconia, N.H.) tonometer. Mice were mildly sedated with isoflurane and topically anesthetized with 0.5% proparacaine (Akorn, Buffalo Grove, Ill.) before IOP measurements were taken. Baseline IOP was measured 1 day prior to mini-pump implantation. After mini-pump implantation, IOP measurements were taken 2-3 times per week for 4 weeks. Pharmacology studies with potential ocular hypotensive compounds were performed between 21 and 28 days after implantation.

For O=C(C[C@@H]1CCCN1)Nc1ncc(-c2cc(C(F)F)nn2-c2c(Cl)cccc2Cl)s1 [Compound 9, (S)—N-(5-(1-(2,6-dichlorophenyl)-3-(difluoromethyl)-1H-pyrazol-5-yl)thiazol-2-yl)-2-(pyrrolidin-2-yl)acetamide], the “Average changes in IOP measured from time of dosing” value (from here on “Average changes in IOP measured”) (3 μg/eye, 0 hr) was 0.00 (0.0), the “Average changes in IOP measured” value (3 μg/eye, 2 hr) was −4.10 (2.6) and the “Average changes in IOP measured” value (3 μg/eye, 4 hr) was −3.81 (3.8). The “Average changes in IOP measured” value (3 μg/eye, 6 hr) was −3.19 (3.2), the “Average changes in IOP measured” value (15 μg/eye, 0 hr) was 0.00 (0.0) and the “Average changes in IOP measured” value (15 μg/eye, 2 hr) was −4.25 (2.7). The “Average changes in IOP measured” value (15 μg/eye, 4 hr) was −4.88 (5.1), the “Average changes in IOP measured” value (15 μg/eye, 6 hr) was −4.88 (4.2) and the “Average changes in IOP measured” value (30 μg/eye, 0 hr) was 0.00 (0.0). For the same compound, the “Average changes in IOP measured” value (30 μg/eye, 2 hr) was −3.33 (4.2), the “Average changes in IOP measured” value (30 μg/eye, 4 hr) was −2.86 (1.1) and the “Average changes in IOP measured” value (30 μg/eye, 6 hr) was −2.29 (2.2). The “Effect in the ocular hypertension model (FIG. 1)” value (dose response, FIG. 1) was “dose dependent effect”.
